Test system: pancreatic cancer ASPC-1 cells
Assay: Cell invasion (Matrigel Transwell)
Assay type: cell-based, human
Settings: 100 nmol/L, jetPRIME, 72 h
Method: 1) Matrigel basement membrane matrix was thawed on crushed ice one night before and diluted with serum-free medium to a final concentration of 200-300 ug/mL. 100 uL of the diluted Matrigel was added to each upper chamber, let stand at 37° C. for 30 min, and the supernatant was aspirated. ASPC-1 cells and BXPC-3 cells with a cell density of more than 90% in 10 cm^2 dishes were digested and resuspended with 1 mL of serum-free medium and counted. 100,000 cells (100 uL) were plated in the upper chamber, and complete medium with 10% FBS was added to the lower chamber of each chamber. Transfection was performed after 12 h, and the groups (3 wells per group) were divided as follows: • blank control group: 10 uL of jetPRIME Buffer • negative control group (NC group) and experimental group: 10 uL of jetPRIME Buffer was mixed well with 0.5 uL of jetPRIME reagent and 0.5 uL of small RNA and let stand for 15 min, and then was added to each well at a 10 uL system (final concentration 100 nmol/L) • Note: 100 uL of nuclease-free water was added to 2 nmol of small RNA dry powder for dissolution at a storage concentration of 20 umol/L
After 72 h, the medium in upper and lower chambers was discarded. The cells were fixed with paraformaldehyde at room temperature for 15 min, stained with 0.1% crystal violet at room temperature for 15 min, and rinsed with PBS. […]

MDM-sRNA-39: small RNA derived from Maytenus hookeri, sequence GGGAUUGUAGUUCAAUUGGUCAGAGCACC (listed as RNA, chemistry not given here)
cell invasion: inhibits
